Laboratory results: patent publication US10988477B2 (Merck Patent GmbH, priority 2018, dated 2021)

What follows are compounds tested against GCN2 kinase (Homo sapiens, UniProt Q9P2K8) (assay: GCN2 enzyme inhibition assay (Transcreener ADP2 fluorescence polarization)). Settings: compounds of Formula II; 280 μM ATP, 4 nM GCN2 kinase.
Assay type: biochemical
Method in brief: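 Inhibition of 4 nM GCN2 was measured with compound up to 8 μM final, ATP 280 μM and (RS)7 peptide 200 μM over a 1 h, 25 °C reaction. ADP FP readout; IC50 and Ki(app) calculated from percent inhibition.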

Sequence of GCN2 kinase (Q9P2K8 whole entry): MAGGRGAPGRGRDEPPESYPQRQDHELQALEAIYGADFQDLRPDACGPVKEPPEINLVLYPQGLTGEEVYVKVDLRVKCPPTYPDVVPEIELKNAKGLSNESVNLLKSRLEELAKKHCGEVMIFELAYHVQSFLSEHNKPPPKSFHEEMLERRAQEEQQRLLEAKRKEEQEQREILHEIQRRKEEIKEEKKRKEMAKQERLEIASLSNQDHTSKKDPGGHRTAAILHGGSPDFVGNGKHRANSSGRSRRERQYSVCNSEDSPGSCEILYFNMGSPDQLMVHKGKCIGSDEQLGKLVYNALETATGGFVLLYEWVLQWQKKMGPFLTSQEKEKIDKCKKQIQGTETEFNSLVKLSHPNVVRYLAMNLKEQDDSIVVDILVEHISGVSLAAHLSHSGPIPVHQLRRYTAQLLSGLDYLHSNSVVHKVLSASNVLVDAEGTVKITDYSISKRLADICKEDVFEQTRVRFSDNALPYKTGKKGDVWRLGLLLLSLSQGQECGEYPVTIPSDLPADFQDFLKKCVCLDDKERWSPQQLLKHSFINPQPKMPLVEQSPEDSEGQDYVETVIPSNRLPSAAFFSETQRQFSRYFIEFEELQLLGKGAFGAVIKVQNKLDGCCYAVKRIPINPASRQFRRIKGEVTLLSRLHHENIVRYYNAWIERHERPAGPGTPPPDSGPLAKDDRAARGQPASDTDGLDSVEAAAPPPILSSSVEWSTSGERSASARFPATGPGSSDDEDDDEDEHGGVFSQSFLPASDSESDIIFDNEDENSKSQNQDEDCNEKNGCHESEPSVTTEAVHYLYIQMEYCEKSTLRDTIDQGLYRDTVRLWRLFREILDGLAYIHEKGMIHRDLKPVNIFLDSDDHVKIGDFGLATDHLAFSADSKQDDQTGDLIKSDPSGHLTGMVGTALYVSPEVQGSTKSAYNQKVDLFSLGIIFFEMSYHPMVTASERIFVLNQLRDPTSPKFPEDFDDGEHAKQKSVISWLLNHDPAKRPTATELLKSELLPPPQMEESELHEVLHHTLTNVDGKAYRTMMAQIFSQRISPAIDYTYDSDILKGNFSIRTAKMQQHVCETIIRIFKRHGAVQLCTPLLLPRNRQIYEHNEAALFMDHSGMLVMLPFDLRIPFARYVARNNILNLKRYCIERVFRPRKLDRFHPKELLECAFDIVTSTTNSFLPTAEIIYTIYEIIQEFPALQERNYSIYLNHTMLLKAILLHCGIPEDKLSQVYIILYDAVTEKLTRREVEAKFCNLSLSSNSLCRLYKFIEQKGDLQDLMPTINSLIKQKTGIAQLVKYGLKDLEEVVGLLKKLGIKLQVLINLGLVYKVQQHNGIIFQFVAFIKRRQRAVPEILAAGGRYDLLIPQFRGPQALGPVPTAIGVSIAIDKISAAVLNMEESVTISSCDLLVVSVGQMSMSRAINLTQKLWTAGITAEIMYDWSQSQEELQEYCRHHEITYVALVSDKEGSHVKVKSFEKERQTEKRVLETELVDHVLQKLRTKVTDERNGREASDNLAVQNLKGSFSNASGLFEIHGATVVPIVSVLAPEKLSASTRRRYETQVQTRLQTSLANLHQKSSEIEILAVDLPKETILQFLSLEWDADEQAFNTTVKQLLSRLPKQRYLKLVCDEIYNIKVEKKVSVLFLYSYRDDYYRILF

Row | Compound | Ki
1 | CC(NS(C)(=O)=O)c1cccc(-c2cc(-c3cnc4ccc(C(F)F)nn34)ncn2)c1 (centres unmarked) [II-609, N-[1-[3-[6-[6-(Difluoromethyl)imidazo[1,2-b]pyridazin-3-yl]pyrimidin-4-yl]phenyl]ethyl]methanesulfonamide] | < 10 nM
2 | Cc1cc(CN=S(C)(C)=O)cc(-c2cc(-c3cnc4ccc(C(F)F)nn34)ncn2)c1 [II-610, [3-[6-[6-(Difluoromethyl)imidazo[1,2-b]pyridazin-3-yl]pyrimidin-4-yl]-5-methyl-phenyl]methylimino-dimethyl-oxo-λ^6-sulfane] | 10 to 1000 nM
3 | Cc1cc(C(=O)N=S(C)(C)=O)cc(-c2cc(-c3cnc4ccc(C(F)F)nn34)ncn2)c1 [II-611, 3-(6-(6-(difluoromethyl)imidazo[1,2-b]pyridazin-3-yl)pyrimidin-4-yl)-N-(dimethyl(oxo)-λ^6-sulfanylidene)-5-methylbenzamide] | 10 to 1000 nM
4 | Cc1cc(CNS(C)(=O)=O)cc(-c2cc(-c3cnc4ccc(C(F)F)nn34)ncn2)c1 [II-612, N-(3-(6-(6-(Difluoromethyl)imidazo[1,2-b]pyridazin-3-yl)pyrimidin-4-yl)-5-methylbenzyl)methanesulfonamide] | < 10 nM
5 | CC1CN(c2cc(-c3cnc4ccc(C(F)F)nn34)ncn2)CC(CO)O1 (centres unmarked) [II-615, (4-(6-(6-(Difluoromethyl)imidazo[1,2-b]pyridazin-3-yl)pyrimidin-4-yl)-6-methylmorpholin-2-yl)methanol] | 10 to 1000 nM
6 | CC1CN(c2cc(-c3cnc4ccc(C(F)F)nn34)ncn2)CC(CO)O1 (centres unmarked) [II-616, (4-(6-(6-(Difluoromethyl)imidazo[1,2-b]pyridazin-3-yl)pyrimidin-4-yl)-6-methylmorpholin-2-yl)methanol] | 10 to 1000 nM
7 | CC1CN(c2cc(-c3cnc4ccc(C(F)F)nn34)ncn2)CC(CO)C1(F)F (centres unmarked) [II-623, (1-(6-(6-(Difluoromethyl)imidazo[1,2-b]pyridazin-3-yl)pyrimidin-4-yl)-4,4-difluoro-5-methylpiperidin-3-yl)methanol] | < 10 nM
8 | CC1CN(c2cc(-c3cnc4ccc(C(F)F)nn34)ncn2)CC(CO)C1(F)F (centres unmarked) [II-624, (1-(6-(6-(Difluoromethyl)imidazo[1,2-b]pyridazin-3-yl)pyrimidin-4-yl)-4,4-difluoro-5-methylpiperidin-3-yl)methanol] | 10 to 1000 nM

Continued, values first:

Row | Ki | Compound
9 | 10 to 1000 nM | CC1C(CNS(C)(=O)=O)C(C)(O)C(C)CN1c1cc(-c2cnc3ccc(C(F)F)nn23)ncn1 (centres unmarked) [II-617, N-((1-(6-(6-(Difluoromethyl)imidazo[1,2-b]pyridazin-3-yl)pyrimidin-4-yl)-4-hydroxy-2,4,5-trimethylpiperidin-3-yl)methyl)methanesulfonamide]
10 | 10 to 1000 nM | CC(NS(C)(=O)=O)C1CCCN(c2cc(-c3cnc4ccc(C(F)F)nn34)ncn2)C1 (centres unmarked) [II-619, N-(1-(1-(6-(6-(Difluoromethyl)imidazo[1,2-b]pyridazin-3-yl)pyrimidin-4-yl)piperidin-3-yl)ethyl)methanesulfonamide]
11 | 10 to 1000 nM | CC(NS(C)(=O)=O)C1CCCN(c2cc(-c3cnc4ccc(C(F)F)nn34)ncn2)C1 (centres unmarked) [II-620, N-(1-(1-(6-(6-(Difluoromethyl)imidazo[1,2-b]pyridazin-3-yl)pyrimidin-4-yl)piperidin-3-yl)ethyl)methanesulfonamide]
12 | 10 to 1000 nM | CC(C)C(C)(O)C1CCCN(c2cc(-c3cnc4ccc(C(F)F)nn34)ncn2)C1 (centres unmarked) [II-621, 2-(1-(6-(6-(Difluoromethyl)imidazo[1,2-b]pyridazin-3-yl)pyrimidin-4-yl)piperidin-3-yl)-3-methylbutan-2-ol]
13 | 10 to 1000 nM | CC(C)C(C)(O)C1CCCN(c2cc(-c3cnc4ccc(C(F)F)nn34)ncn2)C1 (centres unmarked) [II-622, 2-(1-(6-(6-(Difluoromethyl)imidazo[1,2-b]pyridazin-3-yl)pyrimidin-4-yl)piperidin-3-yl)-3-methylbutan-2-ol]
14 | 10 to 1000 nM | CCS(=O)(CC)=NC1CC(C)CN(c2cc(-c3cnc4ccc(C(F)F)nn34)ncn2)C1 (centres unmarked) [II-627, ((1-(6-(6-(Difluoromethyl)imidazo[1,2-b]pyridazin-3-yl)pyrimidin-4-yl)-5-methylpiperidin-3-yl)imino)diethyl-λ^6-sulfanone]
